Measurements taken from publication PMC11267363, “Supramolecular Nanofibers Ameliorate Bleomycin‐Induced Pulmonary Fibrosis by Restoring Autophagy” (Advanced Science, 2024).

How the values were obtained:
human TRB3 protein = molecular target: T1, human TRB3 protein (Homo sapiens, UniProt Q96RU7); assay: Microscale thermophoresis (MST) binding to TRB3; details: Monolith NT.115, recombinant human TRB3, read-out: binding constant (KD)
T1 construct: purchased Sino Biological 10731-H09B
T1 sequence (Q96RU7 1-358): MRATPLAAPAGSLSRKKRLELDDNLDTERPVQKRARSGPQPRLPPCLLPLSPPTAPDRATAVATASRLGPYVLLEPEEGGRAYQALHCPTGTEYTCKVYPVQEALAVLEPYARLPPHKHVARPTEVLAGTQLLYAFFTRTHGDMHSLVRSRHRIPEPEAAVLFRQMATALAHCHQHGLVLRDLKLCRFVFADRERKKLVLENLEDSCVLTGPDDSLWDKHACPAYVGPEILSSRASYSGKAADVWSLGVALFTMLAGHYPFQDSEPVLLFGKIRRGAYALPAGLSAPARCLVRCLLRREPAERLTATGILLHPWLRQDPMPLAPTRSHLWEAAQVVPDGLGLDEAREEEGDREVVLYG
Procedure: To determine the effects of the self‐assembly factor “Ac‐GFFY” on the secondary structure of the A2 peptide fragment, Circular dichroism (CD) and Fourier transform infrared (FTIR) measurements were performed. […] We subsequently assessed the binding affinity between Ac‐GFFY‐A2 or A2 peptides to the human TRB3 protein or bovine serum albumin (BSA) using microscale thermophoresis (MST) assay, with BSA serving as the control group. […] Therefore, we labeled the peptide with the fluorescence group 7‐nitro‐1,2,3‐benzoxadiazole (NBD) to determine the cellular uptake via flow cytometer. The NBD‐labeled peptide was incubated with both of normal and activated MRC‐5 cells for 4 h, respectively. […] Collectively, under the action of supramolecular self‐assembly, the peptide assemblies with stable secondary conformation can not only be effectively absorbed by MRC‐5 cells but also have the potential to interfere with TRB3/p62 PPIs.
HR‐MS (Varian QFT‐ESI) was used to characterize the molecular weight of compounds. TEM (JEM100CXII) was performed at the Tecnai G2 F20 system, operating at 100 kV. Circular dichroism (CD) spectrum was obtained by a BioLogic (MOS‐450) system. Dynamic light scattering was measured by a ZETAPALS/BI‐200SM (BROOKHAVEN) system. Confocal laser scanning microscopy (CLSM) was measured by Leica TCS SP‐5. Flow cytometry (BD, FACS) was used to detect the cellular uptake. […]

[1] = system: TRB3/p62 PPIs in lung tissue; assay: Co-IP, western blot and q-PCR of lung tissues from bleomycin mice; type: in vivo; details: i.v.
Procedure: We attempted to elucidate the mechanism of Ac-GFFY-A2 peptide nanofibers in ameliorating bleomycin-induced lung fibrosis at the molecular level. The nanofibers were administered to the lung fibrosis mice model via intravenous (i.v.) injection, saline treatment as the control group. The mice were sacrificed on day 21 and lung tissues were harvested for the following detection. […] Those results confirmed the potential therapeutic efficacy of peptide nanofibers in pulmonary fibrosis at both the transcriptional and translational levels. […] Gene expression was determined relative to that of the endogenous reference gene (Gapdh) using the 2^-ΔΔCt method. […] The protein concentration was measured using BCA Protein Assay Kit (Thermo Scientific). […] The protein transferred PVDF membranes were incubated with following primary antibodies at 4°C overnight: Then the membranes were incubated with horseradish peroxidase (HRP)-conjugated secondary antibodies at room temperature for 1 h, and protein signals were detected using an enhanced chemiluminescence kit (Pierce). […] The co -precipitates were resolved using SDS-PAGE and detected with immunoblotting. […] Fluorescence imaging was performed using a IVIS Lumina II imaging (PerkinElmer, USA) at different time point post injection. […]

Ac-GFFYGGWLTRLLQTK-OH [Ac-GFFY-A2] was tested, and the Kd (human TRB3 protein) was ~19.1 µM, the “mRNA expression levels of Col 1, FN and α-SMA in lung tissues (q-PCR)” value ([1]; day 21, versus saline treatment control group) was “significantly lower” and the “TRB3/p62 interaction in lung tissue (co-IP)” value ([1]; lung tissues harvested on day 21) was “could disturb the interaction between TRB3 and p62 in lung tissue”.
